Experimental data as given in patent publication US10189865B1, “Gold(I) complexes, pharmaceutical compositions thereof, and methods of treating proliferative disorders” (King Fahd University of Petroleum and Minerals, priority 2018, dated 2019).

Tests used:
Format in all cases: cell-based
[1] = system: HCT15 (human colon cancer) cell line; assay: MTT in vitro cytotoxicity assay, HCT15; conditions: 24 h incubation with complex, three independent experiments, read-out: IC50 against HCT15
Method: (§1) The cells were seeded at 3×10^3 cells/well in 100 μL of Dulbecco's Modified Eagle's Medium (DMEM) containing 10% fetal bovine serum (FBS) in a 96-well tissue culture plate and incubated for 72 h at 37° C., 5% CO2 and 90% relative humidity in a CO2 incubator. After incubation, 100 μL of 100, 50, 25 and 12.5 μM solutions of cisplatin and gold(I) complexes prepared in Dulbecco's Modified Eagle's Medium (DMEM) was each added to the cells and the cultures were incubated for 24 h. The medium in the wells was casted off, and 100 μL of DMEM containing MTT (0.5 mg/mL) was added to the wells, which were subsequently incubated in the CO2 incubator at 37° C. in the dark for 4 h. After incubation, purple-colored formazan produced by the cells appeared as dark crystals in the bottom of the wells. The culture medium was carefully removed from each well to prevent disruption of the monolayer, and 100 μL of dimethyl sulfoxide (DMSO) was added in each well. The solution in the wells was thoroughly mixed to dissolve the formazan crystals which produced a purple solution. The absorbance of the 96 well-plates was measured at 570 nm with Labsystems Multiskan EX ELISA reader against a reagent blank. The experimental results were calculated as micro-molar concentration for 50% cell growth inhibition (IC50) of each drug. The MTT assay was carried out in three independent experiments, each in triplicate. […]

[2] = system: A549 (human lung carcinoma) cell line; assay: MTT in vitro cytotoxicity assay, A549; conditions: 24 h incubation with complex, three independent experiments, read-out: IC50 against A549
Method: as §1

[3] = system: MCF7 (human breast adenocarcinoma) cell line; assay: MTT in vitro cytotoxicity assay, MCF7; conditions: 24 h incubation with complex, three independent experiments, read-out: IC50 against MCF7
Method: as §1

Row | Compound | IC50 [1] [µM] | IC50 [2] [µM] | IC50 [3] [µM]
1 | N.N.[Cl][Pt][Cl] [Cisplatin, cisplatin, reference compound] | 33 ± 2 | – | –
2 | [Au(IPr)(ImSe]PF6 [Complex (II)] | 33 ± 1 | 47 ± 1 | 43 ± 2
